Results: ChEMBL document CHEMBL1687905, “Blockade of IL-6 secretion pathway by the sesquiterpenoid atractylenolide III” (J Nat Prod, 2011)
Calls of active or inactive are those of the source.

Columns and labels:
HMC1 [1] = test: Immunomodulatory activity in human HMC1 cells assessed as inhibition of phorbol 12-myristate 13-acetate/A23187-stimulated IL1-beta secretion treated 1 hr prior to 30 mins phorbol 12-myristate 13-acetate/A23187 challenge by Western blotting analysis; format: functional, cell-based
HMC1 [2] = test: Immunomodulatory activity in human HMC1 cells assessed as inhibition of phorbol 12-myristate 13-acetate/A23187-stimulated IL-6 secretion by ELISA method; format: functional, cell-based
HMC1 [3] = test: Immunomodulatory activity in human HMC1 cells assessed as inhibition of phorbol 12-myristate 13-acetate/A23187-stimulated IL-6 mRNA expression at 1 to 100 uM treated 1 hr prior to 5 hrs phorbol 12-myristate 13-acetate/A23187 challenge by RT-PCR analysis; format: functional, cell-based
HMC1 [4] = test: Immunomodulatory activity in human HMC1 cells assessed as inhibition of phorbol 12-myristate 13-acetate/A23187-stimulated histamine secretion at 100 uM treated 1 hr prior to 6 hrs phorbol 12-myristate 13-acetate/A23187 challenge by histamine assay kit; format: functional, cell-based
[5] = Cytotoxicity against human HMC1 cells assessed as cell viability at 1 to 100 uM after 8 hrs by MTT colorimetric assay; format: cell-based; settings: hmc1, 8 h
HMC1 [6] = test: Immunomodulatory activity in human HMC1 cells assessed as inhibition of phorbol 12-myristate 13-acetate/A23187-stimulated p38 phosphorylation at 1 to 100 uM treated 1 hr prior to 30 mic phorbol 12-myristate 13-acetate/A23187 challenge; format: functional, cell-based
HMC1 [7] = test: Immunomodulatory activity in human HMC1 cells assessed as inhibition of phorbol 12-myristate 13-acetate/A23187-stimulated JNK phosphorylation at 1 to 100 uM treated 1 hr prior to 30 mic phorbol 12-myristate 13-acetate/A23187 challenge; format: functional, cell-based
HMC1 [8] = test: Immunomodulatory activity in human HMC1 cells assessed as inhibition of phorbol 12-myristate 13-acetate/A23187-stimulated ERK phosphorylation at 1 to 100 uM treated 1 hr prior to 30 mins phorbol 12-myristate 13-acetate/A23187 challenge; format: functional, cell-based
HMC1 [9] = test: Suppression of NF-kappaB activation in human HMC1 cells assessed as inhibition of phorbol 12-myristate 13-acetate/A23187-stimulated nuclear Rel A/p65 level at 1 to 100 uM treated 1 hr prior to 2 hrs phorbol 12-myristate 13-acetate/A23187 challenge by Western blotting analysis; format: cell-based
HMC1 [10] = test: Suppression of NF-kappaB activation in human HMC1 cells assessed as inhibition of phorbol 12-myristate 13-acetate/A23187-stimulated IkappaB-alpha degradation at 1 to 100 uM treated 1 hr prior to 2 hrs phorbol 12-myristate 13-acetate/A23187 challenge by Western blotting analysis; format: cell-based
HMC1 [11] = test: Suppression of NF-kappaB activation in human HMC1 cells assessed as inhibition of phorbol 12-myristate 13-acetate/A23187-stimulated luciferase activity at 1 to 100 uM treated 1 hr prior to 24 hrs phorbol 12-myristate 13-acetate/A23187 challenge by luciferase reporter gene assay; format: cell-based
HMC1 [12] = test: Immunomodulatory activity in human HMC1 cells assessed as inhibition of phorbol 12-myristate 13-acetate/A23187-stimulated RIP-2 activation at 1 to 100 uM treated 1 hr prior to 30 mins phorbol 12-myristate 13-acetate/A23187 challenge by Western blotting analysis; format: functional, cell-based
HMC1 [13] = test: Immunomodulatory activity in human HMC1 cells assessed as inhibition of phorbol 12-myristate 13-acetate/A23187-stimulated caspase 1 activation at 1 to 100 uM treated 1 hr prior to 30 mins phorbol 12-myristate 13-acetate/A23187 challenge by Western blotting analysis; format: functional, cell-based
HMC1 [14] = test: Immunomodulatory activity in human HMC1 cells assessed as inhibition of phorbol 12-myristate 13-acetate/A23187-stimulated caspase 1 activation at 1 to 100 uM treated 1 hr prior to 30 mins phorbol 12-myristate 13-acetate/A23187 challenge by caspase colorimetric assay; format: functional, cell-based
HMC1 [15] = test: Immunomodulatory activity in human HMC1 cells assessed as inhibition of phorbol 12-myristate 13-acetate/A23187-stimulated IL1-beta secretion at 1 to 100 uM treated 1 hr prior to 30 mins phorbol 12-myristate 13-acetate/A23187 challenge by Western blotting analysis; format: functional, cell-based

C[C@@H]1C[C@H]2[C@@H]3CCC4=CC(=O)C=C[C@]4(C)[C@@]3(F)[C@@H](O)C[C@]2(C)[C@@]1(O)C(=O)CO
active: inhibition (HMC1 [1])

C=C1CCC[C@]2(C)C[C@]3(O)OC(=O)C(C)=C3C[C@@H]12 [ATRACTYLENOLIDE III]
active: inhibition (HMC1 [2]) Dose-dependent effect | inhibition (HMC1 [3]) | inhibition (HMC1 [4]) | inhibition (HMC1 [6]) | inhibition (HMC1 [7]) | inhibition (HMC1 [9]) | inhibition (HMC1 [10]) | inhibition (HMC1 [11]) | inhibition (HMC1 [12]) Dose-dependent effect | inhibition (HMC1 [13]) Dose-dependent effect | inhibition (HMC1 [14]) | inhibition (HMC1 [15])
inactive: inhibition (HMC1 [8])
Non-toxic: Activity [5]
